Several values for one entry are separate records, joined by “and”; a condition that tells them apart may be missing. Identical values can stand only once. Toxic doses and inconclusive results are not listed. The calls were made as follows: active = survival T/C of 150% or more; inactive = T/C below 125% in these data.
Tested on: BDF1 mice, B16 melanoma ip, median survival T/C
Test: NCI In Vivo Anticancer Drug Screen. Data for tumor model B16 Melanoma (intraperitoneal) in B6D2F1 (BDF1) mice
Conditions: endpoint: median survival time, higher = longer survival
Procedure, shortened: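 Read-out: survival or tumor size, given as treated/control ratio. Controls received vehicle only; animals bore transplantable tumors.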

[1] = dose: 25.0 mg/kg/injection, schedule: Q01DX009 (ip), vehicle: saline with Tween-80
[2] = dose: 50.0 mg/kg/injection, schedule: Q01DX009 (ip), vehicle: saline with Tween-80
[3] = dose: 100.0 mg/kg/injection, schedule: Q01DX009 (ip), vehicle: saline with Tween-80
[4] = dose: 6.25 mg/kg/injection, schedule: Q01DX009 (ip), vehicle: saline with Tween-80
[5] = dose: 12.5 mg/kg/injection, schedule: Q01DX009 (ip), vehicle: saline with Tween-80
[6] = dose: 50.0 mg/kg/injection, schedule: Q04DX003 (ip), vehicle: saline with Tween-80
[7] = dose: 100.0 mg/kg/injection, schedule: Q04DX003 (ip), vehicle: saline with Tween-80
[8] = dose: 12.5 mg/kg/injection, schedule: Q01DX009 (ip), vehicle: Klucel (hydroxypropylcellulose) (HPC)
[9] = dose: 25.0 mg/kg/injection, schedule: Q01DX009 (ip), vehicle: Klucel (hydroxypropylcellulose) (HPC)
[10] = dose: 50.0 mg/kg/injection, schedule: Q01DX009 (ip), vehicle: Klucel (hydroxypropylcellulose) (HPC)
[11] = dose: 200.0 mg/kg/injection, schedule: Q01DX009 (ip), vehicle: saline with Tween-80
[12] = dose: 100.0 mg/kg/injection, schedule: Q01DX009 (ip), vehicle: Klucel (hydroxypropylcellulose) (HPC)
[13] = dose: 200.0 mg/kg/injection, schedule: Q01DX009 (ip), vehicle: Klucel (hydroxypropylcellulose) (HPC)

Measured: T/C

CC1CC[N-]CC1.CC1CC[N-]CC1.CC1CC[N-]CC1.CC1CC[N-]CC1.CS(C)=O.CS(C)=O.[Cl-].[Cl-].[Cl-].[Cl-].[Pt+4].[Rh+3]
inactive: dose: 0.2 mg/kg/injection, schedule: Q01DX009 (ip), vehicle: water 100 % of control | dose: 0.4 mg/kg/injection, schedule: Q01DX009 (ip), vehicle: water 104 % of control | dose: 0.8 mg/kg/injection, schedule: Q01DX009 (ip), vehicle: water 106 % of control | dose: 1.5 mg/kg/injection, schedule: Q01DX009 (ip), vehicle: water 106 % of control | dose: 3.0 mg/kg/injection, schedule: Q01DX009 (ip), vehicle: water 106 % of control

Cc1c2ccncc2cc2c1[nH]c1ccccc12
inactive: [1] 119 % of control | [2] 121 % of control | [3] 122 % of control

CO[C@@H](C=O)O[C@@H](C=O)CO
inactive: [4] 100 % of control | [5] 108 % of control | dose: 12.5 mg/kg/injection, schedule: Q04DX003 (ip), vehicle: saline with Tween-80 96 % of control | [1] 103 % of control | dose: 25.0 mg/kg/injection, schedule: Q01DX009 (ip), vehicle: saline 107 % of control | dose: 25.0 mg/kg/injection, schedule: Q04DX003 (ip), vehicle: saline with Tween-80 108 % of control | [2] 124 % of control | dose: 50.0 mg/kg/injection, schedule: Q01DX009 (ip), vehicle: saline 100 % of control | [6] 102 % of control | dose: 50.0 mg/kg/injection, schedule: Q04DX003 (ip), vehicle: saline 104 % of control | [7] 100 % of control

Cn1c(=O)c2[nH]c(Cc3ccsc3)nc2n(C)c1=O
inactive: [8] 104 % of control | [9] 107 % of control | [10] 96 % of control

CCOC(=O)N(NC(=O)c1ccccc1)C(C)=O
inactive: dose: 6.25 mg/kg/injection, schedule: Q01DX009 (ip), vehicle: other 101 % of control | dose: 12.5 mg/kg/injection, schedule: Q01DX009 (ip), vehicle: other 99 % of control | dose: 25.0 mg/kg/injection, schedule: Q01DX009 (ip), vehicle: other 95 % of control | dose: 50.0 mg/kg/injection, schedule: Q01DX009 (ip), vehicle: other 95 % of control

[Cl][Pd]([Cl])([Cl])[Cl]
inactive: dose: 6.25 mg/kg/injection, schedule: Q01DX009 (ip), vehicle: saline 103 % of control | dose: 12.5 mg/kg/injection, schedule: Q01DX009 (ip), vehicle: saline 92 % of control

CCc1cc(C)cc(OC(=O)Nc2ccc(Cl)cc2)c1
inactive: [3] 116 % of control | [11] 87 % of control | dose: 400.0 mg/kg/injection, schedule: Q01DX009 (ip), vehicle: saline with Tween-80 92 % of control

Cc1cccc(C)c1NC(=S)N(C)C
inactive: dose: 3.12 mg/kg/injection, schedule: Q01DX009 (ip), vehicle: Klucel (hydroxypropylcellulose) (HPC) 102 % of control | dose: 3.13 mg/kg/injection, schedule: Q01DX009 (ip), vehicle: saline with Tween-80 110 % of control | dose: 6.25 mg/kg/injection, schedule: Q01DX009 (ip), vehicle: Klucel (hydroxypropylcellulose) (HPC) 100 % of control | [4] 115 % of control | [8] 91 % of control and 100 % of control | [5] 112 % of control

CC(=N\O)/C(C)=N/O.CC(=N\O)/C(C)=N/O.[Fe].c1c[nH]cn1.c1c[nH]cn1
inactive: [12] 100 % of control | [13] 100 % of control

Clc1ccc2c3c(cccc13)CC2
inactive: dose: 5.0 mg/kg/injection, schedule: Q01DX009 (ip), vehicle: saline with Tween-80 87 % of control | dose: 10.0 mg/kg/injection, schedule: Q01DX009 (ip), vehicle: saline with Tween-80 92 % of control | dose: 20.0 mg/kg/injection, schedule: Q01DX009 (ip), vehicle: saline with Tween-80 87 % of control | dose: 40.0 mg/kg/injection, schedule: Q01DX009 (ip), vehicle: saline with Tween-80 87 % of control

COC(=O)/C(C)=C/C=C/C(OC)C(OC(N)=O)/C(C)=C/C(C)C(O)C(CC(C)CC1=C(N)C(=O)C=C(N)C1=O)OC (stereo not drawn)
inactive: dose: 12.5 mg/kg/injection, schedule: Q01DX005 (ip), vehicle: other 94 % of control | dose: 25.0 mg/kg/injection, schedule: Q01DX005 (ip), vehicle: other 95 % of control | dose: 50.0 mg/kg/injection, schedule: Q01DX005 (ip), vehicle: other 108 % of control | dose: 100.0 mg/kg/injection, schedule: Q01DX005 (ip), vehicle: other 93 % of control

COc1c([N+](=O)[O-])cc(C(=O)O)cc1[N+](=O)[O-]
inactive: [12] 92 % of control | [13] 92 % of control

CC(CN(C)C)C(=O)c1ccccc1 (stereo not drawn)
inactive: [9] 106 % of control | [10] 90 % of control | [12] 96 % of control

CCOC(=O)C(Cc1ccccc1)P(=O)(OCC)OCC (stereo not drawn)
inactive: [6] 100 % of control | [7] 95 % of control | dose: 200.0 mg/kg/injection, schedule: Q04DX003 (ip), vehicle: saline with Tween-80 90 % of control

C#CC(C)(C)OCC(CCl)OC(N)=O (stereo not drawn)
inactive: [5] 91 % of control | [1] 100 % of control | [2] 104 % of control | [3] 93 % of control | [11] 95 % of control

C=C(C)[C@@]12O[C@@]3(/C=C/C=C/CCCCC)O[C@@H]1[C@@H]1[C@@H]4O[C@]4(COC(=O)CCCCCCCCCCCCCCC)[C@@H](O)[C@]4(O)C(=O)C(C)=CC4[C@@]1(O3)[C@H](C)[C@H]2OC(=O)c1ccccc1 (stereo partly drawn)
inactive: dose: 0.5 micrograms/kg/injection, schedule: Q01DX009 (ip), vehicle: saline 102 % of control | dose: 1.0 micrograms/kg/injection, schedule: Q01DX009 (ip), vehicle: saline 106 % of control | dose: 1.9 micrograms/kg/injection, schedule: Q01DX009 (ip), vehicle: saline 105 % of control | dose: 3.8 micrograms/kg/injection, schedule: Q01DX009 (ip), vehicle: saline 99 % of control | dose: 7.5 micrograms/kg/injection, schedule: Q01DX009 (ip), vehicle: saline 102 % of control | dose: 15.0 micrograms/kg/injection, schedule: Q01DX009 (ip), vehicle: saline 103 % of control | dose: 30.0 micrograms/kg/injection, schedule: Q01DX009 (ip), vehicle: saline 104 % of control

COCC1OC(OC2C3=C(C(C)C)CCC3(C)/C=C3\C(CCC3(O)COC)C(C)C2O)C(O)C2OC3OC12OC3(C)C1CO1 (stereo not drawn)
inactive: dose: 1.5 mg/kg/injection, schedule: Q01DX009 (ip), vehicle: Klucel (hydroxypropylcellulose) (HPC) 93 % of control | dose: 3.0 mg/kg/injection, schedule: Q01DX009 (ip), vehicle: Klucel (hydroxypropylcellulose) (HPC) 89 % of control | dose: 6.0 mg/kg/injection, schedule: Q01DX009 (ip), vehicle: Klucel (hydroxypropylcellulose) (HPC) 98 % of control | dose: 12.0 mg/kg/injection, schedule: Q01DX009 (ip), vehicle: Klucel (hydroxypropylcellulose) (HPC) 91 % of control | dose: 24.0 mg/kg/injection, schedule: Q01DX009 (ip), vehicle: Klucel (hydroxypropylcellulose) (HPC) 105 % of control

[Cl][Pt+2][Cl].[NH-]C1CCC1.[NH-]C1CCC1
inactive: dose: 0.5 mg/kg/injection, schedule: Q01DX009 (ip), vehicle: saline with Tween-80 108 % of control | dose: 1.0 mg/kg/injection, schedule: Q01DX009 (ip), vehicle: saline with Tween-80 117 % of control | dose: 2.0 mg/kg/injection, schedule: Q01DX009 (ip), vehicle: saline with Tween-80 115 % of control | dose: 5.0 mg/kg/injection, schedule: Q01DX009 (ip), vehicle: Klucel (hydroxypropylcellulose) (HPC) 112 % of control

CCN(CC)Cc1ncccc1O
inactive: [10] 107 % of control | [12] 103 % of control
